Assay results taken from patent US20110190125A1, “2-(BENZYLSULFONYL)OXAZOLE DERIVATIVES, CHIRAL 2-(BENZYLSULFINYL)OXAZOLE DERIVATIVES” (BAYER CROPSCIENCE AG, priority 2008, published 2011).

Columns and labels:
Type in all cases: in vivo
Echinochloa crus galli [1] = assay: Pre-emergence herbicidal effect (greenhouse pot test); settings: pre-emergence method, application rate of 0.32 kg and less of active substance per hectare, scored visually after about 3 weeks
Description: (§1) Seeds of monocotyledonous or dicotyledonous weed plants or crop plants are placed in sandy loam in wood-fiber pots and covered with soil. The compounds according to the invention, formulated in the form of wettable powders (WP), are then applied as aqueous suspension at a water application rate of 600 I/ha (converted) with the addition of 0.2% of wetting agent to the surface of the covering soil.
(§2) After the treatment, the pots are placed in a greenhouse and kept under good growth conditions for the test plants. After about 3 weeks, the effect of the preparations is scored visually in comparison with untreated controls (herbicidal effect in percent (%): 100% activity=the plants have died, 0% activity=like control plants).

Veronica persica = assay: as above; settings: pre-emergence method, application rate of 0.32 kg and less of active substance per hectare, scored visually after about 3 weeks
Description: as §1, §2

Alopecurus myosuroides = assay: as above; settings: pre-emergence method, application rate of 0.32 kg and less of active substance per hectare, scored visually after about 3 weeks
Description: as §1, §2

Lolium multiflorum [2] = assay: as above; settings: pre-emergence method, application rate of 0.32 kg and less of active substance per hectare, scored visually after about 3 weeks
Description: as §1, §2

Echinochloa crus galli [3] = assay: Post-emergence herbicidal effect (greenhouse pot test); settings: post-emergence method, application rate of 0.32 kg and less of active substance per hectare, rated visually after about 3 weeks
Method: (§3) Seeds of monocotyledonous and dicotyledonous weed and crop plants are placed in sandy loam in wood-fiber pots, covered with soil and cultivated in a greenhouse under good growth conditions. 2 to 3 weeks after sowing, the test plants are treated at the one-leaf stage. The compounds according to the invention, formulated in the form of wettable powders (WP), are then sprayed as aqueous suspension at a water application rate of 600 I/ha (converted) with the addition of 0.2% of wetting agent onto the green parts of the plants. After the test plants have been kept in the greenhouse under optimum growth conditions for about 3 weeks, the activity of the preparations is rated visually in comparison to untreated controls (herbicidal activity in percent (%): 100% activity=the plants have died, 0% activity=like control plants).

Lolium multiflorum [4] = assay: as above; settings: post-emergence method, application rate of 0.32 kg and less of active substance per hectare, rated visually after about 3 weeks
Method: as §3

[O-][S+](Cc1c(F)cccc1F)c1ncco1 (stereo not drawn) [compound No. 11, 2-[(2,6-Difluorobenzyl)sulfinyl]-1,3-oxazole]
very good herbicidal activity: herbicidal activity against Echinochloa crus galli (Echinochloa crus galli [1]) | herbicidal activity against Veronica persica (Veronica persica) | herbicidal activity against Alopecurus myosuroides (Alopecurus myosuroides) | herbicidal activity against Lolium multiflorum (Lolium multiflorum [2])

Cc1ccc(C)c(C[S+]([O-])c2ncco2)c1 (stereo not drawn) [compound No. 131, 2-[(2,5-Dimethylbenzyl)sulfinyl]-1,3-oxazole]
very good herbicidal activity: herbicidal activity against Echinochloa crus galli (Echinochloa crus galli [3]) | herbicidal activity against Lolium multiflorum (Lolium multiflorum [4]) | herbicidal activity against Echinochloa crus galli (Echinochloa crus galli [1]) | herbicidal activity against Veronica persica (Veronica persica) | herbicidal activity against Alopecurus myosuroides (Alopecurus myosuroides) | herbicidal activity against Lolium multiflorum (Lolium multiflorum [2])

[O-][S+](Cc1c(Cl)ccc(Cl)c1Cl)c1ncco1 (stereo not drawn) [compound No. 65, 2-[(2,3,6-Trichlorobenzyl)sulfinyl]-1,3-oxazole]
very good herbicidal activity: herbicidal activity against Echinochloa crus galli (Echinochloa crus galli [3]) | herbicidal activity against Lolium multiflorum (Lolium multiflorum [4]) | herbicidal activity against Echinochloa crus galli (Echinochloa crus galli [1]) | herbicidal activity against Veronica persica (Veronica persica) | herbicidal activity against Alopecurus myosuroides (Alopecurus myosuroides) | herbicidal activity against Lolium multiflorum (Lolium multiflorum [2])

Cc1ccc(F)c(C[S+]([O-])c2ncco2)c1F (stereo not drawn) [compound No. 14, 2-[(2,6-Difluoro-3-methylbenzyl)sulfinyl]-1,3-oxazole]
very good herbicidal activity: herbicidal activity against Echinochloa crus galli (Echinochloa crus galli [1]) | herbicidal activity against Veronica persica (Veronica persica) | herbicidal activity against Alopecurus myosuroides (Alopecurus myosuroides) | herbicidal activity against Lolium multiflorum (Lolium multiflorum [2])

[O-][S+](Cc1c(Cl)cccc1Cl)c1ncco1 (racemic) [compound 44, 2-[(2,6-dichlorobenzyl)sulfinyl]-1,3-oxazole]
very good herbicidal activity: herbicidal activity against Echinochloa crus galli (Echinochloa crus galli [3]) | herbicidal activity against Lolium multiflorum (Lolium multiflorum [4]) | herbicidal activity against Echinochloa crus galli (Echinochloa crus galli [1]) | herbicidal activity against Veronica persica (Veronica persica) | herbicidal activity against Alopecurus myosuroides (Alopecurus myosuroides) | herbicidal activity against Lolium multiflorum (Lolium multiflorum [2])

[O-][S+](Cc1c(F)ccc(F)c1Cl)c1ncco1 (stereo not drawn) [compound No. 203, 2-[(2-Chloro-3,6-difluorobenzyl)sulfinyl]-1,3-oxazole]
very good herbicidal activity: herbicidal activity against Echinochloa crus galli (Echinochloa crus galli [3]) | herbicidal activity against Lolium multiflorum (Lolium multiflorum [4]) | herbicidal activity against Echinochloa crus galli (Echinochloa crus galli [1]) | herbicidal activity against Veronica persica (Veronica persica) | herbicidal activity against Alopecurus myosuroides (Alopecurus myosuroides) | herbicidal activity against Lolium multiflorum (Lolium multiflorum [2])

[O-][S@@+](Cc1c(Cl)cccc1Cl)c1ncco1 [compound 2517]
very good herbicidal activity: herbicidal activity against Echinochloa crus galli (Echinochloa crus galli [3]) | herbicidal activity against Lolium multiflorum (Lolium multiflorum [4]) | herbicidal activity against Echinochloa crus galli (Echinochloa crus galli [1]) | herbicidal activity against Veronica persica (Veronica persica) | herbicidal activity against Alopecurus myosuroides (Alopecurus myosuroides) | herbicidal activity against Lolium multiflorum (Lolium multiflorum [2])

O=S(=O)(Cc1c(Cl)ccc(Cl)c1Cl)c1ncco1 [compound No. 66, 2-[(2,3,6-Trichlorobenzyl)sulfonyl]-1,3-oxazole]
very good herbicidal activity: herbicidal activity against Echinochloa crus galli (Echinochloa crus galli [1]) | herbicidal activity against Veronica persica (Veronica persica) | herbicidal activity against Alopecurus myosuroides (Alopecurus myosuroides) | herbicidal activity against Lolium multiflorum (Lolium multiflorum [2])
